Data: patent US9078864B2, “Agonists for antimicrobial peptide systems” (priority 2008, dated 2015)
Entries after “also recorded” stand apart in the source; their conditions may differ.

What was measured:
[1] = tested on: PBA and butyrate induced CAMP gene expression; assay: Inhibition of PBA and butyrate induced CAMP gene expression by cycloheximide in VA10 cells; type: cell-based, human; conditions: 20 μg/ml one hour prior to stimulation, 24 hours
Procedure: VA10 cells were treated with 4 mM PBA or butyrate (BA) in the presence or absence of 20 μg/ml cycloheximide. CAMP mRNA levels were determined by real time RT-PCR. Individual samples were normalized to total RNA input. Results were normalized to expression in control samples (solvent) where controls were given the arbitrary value of one. Normalized data is plotted as mean plus standard error of the mean from at least three independent experiments. *: p<0.05; **: p<0.01; ***: p<0.001.
In order to assess whether the PBA and butyrate induction pathways of CAMP gene expression are direct, VA10 cells were treated with PBA or butyrate in the presence and absence of cycloheximide (CHX). After 24 hours of incubation, total RNA was isolated and CAMP mRNA levels measured using real time RT-PCR.

[2] = tested on: CAMP gene, encoding LL-37; assay: CAMP (LL-37) mRNA expression in VA10 lung epithelial cells, real time RT-PCR; type: cell-based, human; conditions: for CAMP mRNA expression: 4 mM
Procedure: LL-37 expression in lung epithelial cells treated with different agents Lung epithelial cells (VA 10) were grown to confluency under standard conditions and the agents to be tested added at the indicated concentrations (see below). mRNA was isolated 24 hours after treatment and measured by real time reverse transcription PCR.
Six-well plates were seeded with 1.0×10^6 cells per well and grown for two days. Medium was then exchanged and different wells were left untreated, supplemented with 2 mM sodium butyrate or 2 mM sodium 4-phenylbutyrate. The cells were incubated for 48 h and total RNA was prepared using the RNEasy kit (Qiagen). Total RNA concentrations were measured using the Quant-iT RiboGreen RNA assay kit (Invitrogen). Superscript III first-strand synthesis system (Invitrogen) was used to synthesize cDNA using random primers according to the protocol of the manufacturer. […] Results were normalized to total RNA quantity, presented as relative fold induction of untreated control cells.
Total RNA was isolated from the cells and CAMP mRNA expression levels analyzed by real time RT-PCR.

[3] = tested on: PBA induced CAMP gene expression; assay: Inhibition of PBA induced CAMP gene expression by MAP kinase inhibitors in VA10 cells; type: cell-based, human; conditions: 20 μM inhibitor one hour prior to 4 mM PBA, 24 hours
Procedure: FIG. 6B. […] CAMP mRNA levels were determined by real time RT-PCR. Individual samples were normalized to total RNA input. Results were normalized to expression in control samples where controls were given the arbitrary value of one. Normalized data is plotted as mean+SE from three independent experiments. *: P<0.05; **: P<0.01; ***: P<0.001
The effect of inhibitors for c-Jun N-terminal kinase (JNK), p38 kinase and extracellular signal-regulated kinase ½ (ERK½) on PBA induced CAMP gene expression were also investigated as shown in FIG. 6B. One hour prior to stimulation with 4 mM PBA, VA10 cells were pre incubated with 20 μM SP600125, SB203580 or U0126 to inhibit the respective kinases. After 24 hours of incubation, total RNA was isolated and analyzed by real time RT-PCR for CAMP mRNA.

LL-37 mRNA = conditions: colonocytes in vitro; cited from earlier work
defensin = conditions: similar concentrations, FIG. 7 of US2002-0076393; cited from earlier work
[4] = cited from earlier work; for safety of topical (enema) dosing: 528 mg/day to 1.12 g/day, 2-6 weeks, adult IBD patients
[5] = tested on: shigellosis; CAP-18 (the rabbit homologue of LL-37); conditions: rabbits; cited from earlier work
cathelicidin = conditions: 4000 IU/d oral for 21 days, atopic dermatitis subjects; cited from earlier work
hBD-1 mRNA = hBD-1 mRNA expression in VA10 cells, real time RT-PCR; type: cell-based, human; conditions: 4 mM, 24 hours, compared with CAMP induction
Procedure: FIG. 11: Induction of hBD-1 mRNA expression by PBA. VA10 cells were stimulated with 4 mM of PBA or solvent alone (Control) for 24 hours. hBD-1 mRNA levels were determined by real time RT-PCR, CAMP induction shown for comparison. Individual samples were normalized to total RNA input. Results were normalized to expression in control samples where controls were given the arbitrary value of one. Data is normalized to control and plotted as mean+SE from at least three independent experiments.
CAMP is not the only antimicrobial defense gene that is induced by PBA.

[6] = tested on: CAMP mRNA in HT-29 (Human colonic adenocarcinoma cell line); assay: CAMP gene expression by PBA in HT-29 cells; type: cell-based; conditions: 4 mM, 8, 24 and 48 hours
Procedure: (§1) FIG. 3: Induction of CAMP gene mRNA expression by PBA. A) VA10 cells were stimulated with the indicated concentrations of PBA or solvent (Control) for 24 hours. B) VA10 cells were stimulated with 4 mM PBA or treated with solvent alone and harvested after the indicated period of time. C) A498, HT-29 and U937 cells were stimulated with 4 mM PBA or solvent only and harvested after the indicated period of time. CAMP mRNA levels were determined by real time RT-PCR. Individual samples were normalized to total RNA input. Results were normalized to expression in control samples where controls were given the arbitrary value of one. The normalized data is plotted as mean+SE from at least three independent experiments.
(§2) In order to investigate the effect of PBA on other cell lines, HT-29 (Human colonic adenocarcinoma cell line), […] (Human renal carcinoma cell line) and U937 (Human leukemic monocyte lymphoma cell line) were stimulated with 4 mM PBA for 8, 24 and 48 hours. Total RNA was isolated from the cells and CAMP mRNA expression levels analyzed by real time RT-PCR.

VDR co-activator genes = assay: VDR co-activator mRNA levels in VA10 cells, real time RT-PCR; type: cell-based, human; conditions: 4 mM, 24 hours
Procedure: VA10 cells were stimulated with 4 mM of PBA or solvent alone (Control) for 24 hours. mRNA levels of the respective VDR co-activators were determined by real time RT-PCR. Individual samples were normalized to total RNA input. Results were normalized to expression in control samples where controls were given the arbitrary value of one. Data is normalized to control and plotted as mean+SE from three independent experiments.
Hypothesizing that the synergistic effect between PBA and 1,25(OH)2D3 was due to an induction of VDR co-activator genes by PBA, we analyzed the effect of PBA on mRNA levels of several known VDR co-activator genes in VA10. […] These co-activators are therefore not involved in the PBA-induced effects on gene expression.

[7] = tested on: CAMP mRNA in U937 (Human leukemic monocyte lymphoma cell line); assay: CAMP gene expression by PBA in U937 cells; type: cell-based; conditions: 4 mM, 8, 24 and 48 hours
Procedure: as §1, §2

[8] = tested on: CAMP mRNA in A497 (Human renal carcinoma cell line); assay: CAMP gene expression by PBA in A497 cells; type: cell-based; conditions: 4 mM, 8, 24 and 48 hours
Procedure: as §1, §2

[9] = tested on: acetylation of histone H3 and H4 at the CAMP gene proximal promoter; assay: Histone H3 and H4 acetylation at the CAMP gene promoter, quantitative ChIP in VA10 cells; type: cell-based, human; conditions: 4 mM, 24 hours, listed as PBA
Procedure: FIG. 9: VA10 cells were stimulated with 4 mM of PBA or solvent alone (Control) for 24 hours. Acetylation of histone H3 and H4 was analyzed by quantitative ChIP using antibodies against the respective acetylated histones. Results were normalized to normal rabbit IgG and total input and plotted as fold precipitation over IgG. Normalized data is plotted as mean+SE from independent experiments (n=3).
The effect of PBA on acetylation of histone H3 and H4 by quantitative chromatin immunoprecipitation was assessed.

[10] = tested on: CAP-18 (the rabbit homologue to LL-37); assay: Shigella infected rabbits treated with glyceryl tributyrate, CAP-18 immunohistochemistry; type: in vivo; conditions: oral, 47 μmol/kg twice daily for 3 days, Shigella flexneri 2a
Procedure: Animal model: Inbred New Zealand White rabbits of either gender weighing 1.8 to 2 kg were used for the study. The animals were individually caged in a room maintained at 22-25° C. Before inclusion in the study, health status of the rabbits was determined by physical examination, culture of stool and rectal swab specimens and fecal parasitic examination. Healthy coccidia-free rabbits that were also free of enteric pathogens (e.g. Salmonella, Shigella, Vibrio cholera) were studied. Rabbits were infected with Shigella and divided into two groups, one group was treated orally with glyceryl tributyrate and the other with saline. Expression of the CAP-18 peptide and its proform in colonic and rectal tissue specimens were analyzed in healthy rabbits, in untreated infected rabbits, in infected and healthy rabbits treated with glycerol tributyrate. For analyses of toxicity effects of glycerol tributyrate healthy rabbits were also treated with this compound.
Bacterial strain and inoculum preparation: The Shigella flexneri 2a strain was isolated from stool of a patient. The strain was positive for the Serény test and Congo red binding, reflecting invasive properties (Berkhoff, H. A. and Vinal, A. C., 1986, Avian Dis. 30, 117-121)) From this stock, bacteria were subcultured on trypticase soya agar (TSA; Becton Dickinson, Sparks, Md.) plates and cultured overnight at 37° C. […]

## C[C@@H]1C[C@@H]([C@H](O)CC2CC(=O)NC(=O)C2)C(=O)[C@@H](C)C1 [CHX, cycloheximide]
[1]; 4 mM PBA
  PBA induced CAMP gene expression in presence of cycloheximide: effectively blocked
[1]; 4 mM butyrate
  butyrate induced CAMP gene expression in presence of cycloheximide: effectively blocked

## CC(Cc1ccccc1)C(=O)O (stereo not drawn) [ST7, α-methylhydrocinnamate]
[2]; VA10 cells, 24 hours
  CAMP mRNA expression: significantly increased

## CCC(C)(C)C(=O)O [ST20, 2,2-dimethylbutyrate]
[2]; VA10 cells, 24 hours
  CAMP mRNA expression: no apparent effect

## N#CC(=C(/N)Sc1ccccc1N)/C(C#N)=C(\N)Sc1ccccc1N [U0126]
[3]
  PBA induced CAMP gene expression in presence of inhibitor: significantly reduced

## CCCC(=O)[O-].[Na+] [butyrate, sodium butyrate]
LL-37 mRNA
  LL-37 mRNA expression: increases
defensin
  activity in stimulating production of defensin relative to isoleucine: less active than isoleucine at similar concentrations
[4]
  safety of topical (enema) dosing: safe with no obvious side effects
[4]; daily oral dose of 4 g, colonic-targeted tablets, 6 weeks, IBD patients
  safety of oral dosing: safe and well tolerated without any adverse effects
[5]
  CAP-18 in the surface epithelium: significant upregulation
  clinical illness and bacterial load in the stool: reduced clinical illness and bacterial load in the stool

## CC(C)C(=O)O [isobutyrate]
LL-37 mRNA
  LL-37 mRNA expression: increases

## C=C1CC[C@H](O)C/C1=C/C=C1\CCC[C@]2(C)[C@@H]([C@H](C)CCCC(C)C)CC[C@@H]12 [oral vitamin D]
cathelicidin
  cathelicidin expression in AD lesional skin: statistically significant increase

## CCC(=O)O [propionate]
LL-37 mRNA
  LL-37 mRNA expression: increases

## O=C([O-])CCCc1ccccc1.[Na+] [sodium 4-phenylbutyrate]
hBD-1 mRNA
  hBD-1 mRNA expression: induced, although at lower level than CAMP
[2]; 8 mM, earlier experiments, results not shown
  dose dependence of response at higher concentrations: ceased to be dose-dependent
[2]; VA10 cells, 2 mM, 24 hours, compared with sodium butyrate 2 mM and vitamin D3 100 nM
  LL-37 mRNA expression (fold-induction of CAMP mRNA): more effective inducer of LL-37 mRNA expression than butyrate or vitamin D
[2]; VA10 cells, 4 mM over different time points, different concentrations for 24 hours
  time and dose dependence of CAMP mRNA expression: dependent on PBA dose and increased over time
[6]
  CAMP mRNA expression: significantly increased
[4]
  safety of topical (enema) dosing: None of these studies reported any adverse effect or reactions
VDR co-activator genes
  mRNA levels of VDR co-activator genes: None of the genes were significantly upregulated
[7]
  CAMP mRNA expression: significantly increased
[8]
  CAMP mRNA expression: significantly increased
[9]
  histone H3 and H4 acetylation at the CAMP gene proximal promoter: No significant differences; also recorded: No significant change

## CCCC(=O)OCC(COC(=O)CCC)OC(=O)CCC [tributyrylglycerol, glyceryl tributyrate]
[10]
  CAP-18 expression in surface epithelial cells of Shigella infected rabbits: counteracted; also recorded: reverted and/or prevented
